# Results from patent US10316348B2, “Diagnostic system and process for rapid bacterial infection diagnosis” (priority 2014, dated 2019).
# “And” between values parts separate entries of the source, which are not always exact repeats. Equal values may be shown once.
# Columns and labels:
# [1] = tested on: P. aeruginosa strain PA14 biofilms; experiment: Square wave voltammetry of pyocyanin produced by PA14 biofilms in a microfluidic growth chamber during antibiotic exposure; format: cell-based, Pseudomonas aeruginosa
# Procedure: P. aeruginosa strain PA14 and m-cherry Escherichia coli strain K12 were used for all antibiotic tests performed. Trypticase soy broth (BD 211768) was used as the nutrient source for all bacteria grown in these tests. Colistin sulfate (Adipogen AG-CN2-0065-G001) was dissolved in trypticase soy broth (TSB) at 1 g/L and used as a stock solution. When not in use, the stock solution was stored at 4° C. Polydimethylsiloxane (Ellsworth Adhesives 184 Sil. Elast. Kit 0.5 kg) was used to prepare all microfluidic devices. Disposable three electrode cells (Zensor TE100) were used for all measurements in this study. The electrochemical cells consist of carbon working and counter electrodes with a Ag/AgCl paste reference electrode. Tubing and luer lock fittings for microfluidic connections were purchased from Amazon Supply (B001GMWZM) and Value Plastic (MTLL230). To prevent bacteria from leaving the microfluidic growth chambers, Minisart RC4 0.2 micron regenerated cellulose luer lock syringe filters (17821K) were attached to the inlets and outlets of the devices via 19 gauge luer lock syringes (NE192PL-25). A syringe pump (Harvard Apparatus Fusion 200 211097) was used to control the flow rate of growth media and antibiotic through the microfluidic chamber. Electrochemical measurements were made using a multipotentiostat (CHI 1040C A2728).
# Polydimethylsiloxane (PDMS) wells were fabricated from 9 mm×9 mm tape molds made on glass slides (3M Scotch Tape, tape thickness ≈50 μm) using a standard method. […] Inlets and outlets in the wells were drilled and the resulting microfluidic devices were fabricated by irreversibly bonding PDMS to the disposable electrochemical cells using air plasma (Anatech SP-100, 5-7 s at 100 W). The microfluidic channels were filled with trypticase soy broth (TSB) at a flow rate of 10 μL/min. To facilitate complete filling of the chamber (removal of air bubbles), an empty syringe was attached to the outlet. By pulling and releasing vacuum on the outlet, TSB was pulled through the chamber displacing any air bubbles.
# For antibiotic testing, cultures of PA14 and E. coli were grown over night in 3 mL of TSB (concentration approximately […]). After overnight growth, samples were centrifuged for 3 min at 10,000 rpm. The supernatant was discarded and the cultures were reconstituted in 3 mL of fresh TSB. After removing the inlet syringe filter, approximately 24 μL of reconstituted cell culture was loaded into the growth chamber at a flow rate of 10 μL/min. […] After overnight growth, flow at 0.1 μL/min was initiated with either TSB or colistin sulfate in TSB and the electrochemical response was monitored. […]
# P. aeruginosa = conditions: literature value, cited from earlier work
# PA14 [2] = experiment: Regrowth on TSB agar plates of cells taken from PDMS chambers after colistin sulfate exposure; format: cell-based, Pseudomonas aeruginosa; conditions: TSB plate
# Procedure: FIG. 12 illustrates PA14 exposed to 100 mg/L and 4 mg/L colistin sulfate for 20 hours within PDMS chambers then spotted onto TSB plates. Photographs of a plate after incubation at 37° C. for A) 4.3 h, B) 6.5 h, and C) 74.3 h (removed from the incubator after 24 h to avoid drying and grown at room temperature (≈23° C.)). Arrows highlight the locations of the first observed PA14 colonies. A vertical line divides the areas on the plate where PA14 exposed to 100 mg/L (left) and 4 mg/L (right) colistin sulfate were spotted.
# FIG. 22 illustrates PA14 streaked onto TSB after exposure to 100 mg/L and 4 mg/L colistin for 20 hours within PDMS flow chambers. Photographs show the plate after A) 4.33 h, B) 6.5 h, and C) 74.3 h of incubation. The plate was incubated at 37° C. for the first 24 hours, then grown at room temperature for the remaining time to prevent the agar from drying out.
# The qualitative results of the live cell stain are consistent with the culture plate experiments. The live cell concentration in biofilms exposed to 100 mg/L colistin sulfate (FIG. 11B), however, is higher than expected when compared to the reduced rate of colony formation on agar plates (FIG. 12).
# Regarding FIG. 22, after exposure to colistin sulpahte at 4 and 100 mg/L flowing at 100 nL/min, the PDMS chambers were peeled from the disposable electrodes. […] Samples were incubated at 37° C., and monitored for growth. […]
# PA14 cells = experiment: Live cell counts (LIVE/DEAD stain, haemocytometer) of biofilm removed from the device after antibiotic exposure; format: cell-based, Pseudomonas aeruginosa; conditions: PA14 biofilm exposed to 100 mg/L colistin sulfate, compared to 0 and 4 mg/L
# Procedure: Cell viability after exposure to colistin sulfate was assessed using a LIVE/DEAD staining kit (EMD Chemicals Millipore 50-231-0606). Stains were prepared per manufacturer's operating procedure. After staining, 10 μL of sample was injected into an INCYTO C-chip disposable hemocytometer (DHC-N01). Cells were imaged using a fluorescence microscope, and the number of PA14 cells that were alive after exposure was determined using IMAGE J (ImageJ, U.S. National Institutes of Health, Bethesda, Md., USA, http://imagej.nih.gov/ij/).
# The number of living cells measured after exposure to three different concentrations of colistin sulfate were compared (FIG. 11B). After the biofilm was exposed to antibiotic in the device, the PDMS chambers were peeled off and 100 μL of fresh TSB was spotted on the biofilm and pipetted vigorously to remove material from the surface of the electrode. Removed samples were used to measure live cell counts, performed with Millipore 3P Live/Dead Stain, using a haemocytometer. […] A concentration of approximately 4×10^5 live cells/mL was measured in the biofilms not exposed to colistin sulfate. […] A statistically significant reduction in the number of live PA14 cells was measured for samples exposed to 100 mg/L colistin sulfate compared to cells exposed to 0 and 4 mg/L colistin sulfate. […]
# PA14 [3] = experiment: Growth of liquid PA14 cultures plated on cetrimide agar plates containing colistin sulfate; format: cell-based, Pseudomonas aeruginosa
# Procedure: FIG. 21 illustrates images of PA14 colonies after 20 hours of growth at 37° C. on cetrimide agar plates mixed with different concentrations of colistin sulfate.
# Regarding FIG. 21, liquid cultures of PA14, grown over night in 3 mL of TSB, were plated directly onto cetrimide agar plates containing 0, 4, and 100 mg/L of colistin sulfate. These plates were incubated overnight at 37° C. The plates were then inspected for bacterial growth (FIG. 21).
Compound,"average response (peak current, PYO production) compared to biofilms exposed to only TSB ([1]; PA14 biofilm exposed to 4 mg/L colistin sulfate, ANOVA)","average percent decrease in the maximum peak current at the end of testing ([1]; PA14 biofilm exposed to 100 mg/L colistin sulfate in TSB, flow 100 nL/min, compared to control cells)","average peak current compared against the control (ANOVA) ([1]; PA14 exposed to 16 and 100 mg/L colistin sulfate, P<0.05)",reported MIC (High MIC) (P. aeruginosa; higher MIC),reported MIC (low MIC) (P. aeruginosa; lower MIC),"incubation time after which growth (visible colonies) was observed (PA14 [2]; cells exposed to 4 mg/L colistin sulfate for 20 hours in chambers, 37° C.)",growth after 6.5 h of incubation (PA14 [2]; cells exposed to 100 mg/L colistin sulfate for 20 hours in chambers),reduction in the number of living cells (PA14 cells),bacterial growth on plate after overnight incubation at 37° C. (PA14 [3]; cetrimide agar containing 4 mg/L colistin sulfate),bacterial growth on plate after overnight incubation at 37° C. (PA14 [3]; cetrimide agar containing 100 mg/L colistin sulfate),effect on PYO production (SWV response) ([1]; PA14 exposed to 100 mg/L ampicillin in TSB under flow)
colistin sulfate,no significant difference,~82%,significantly lower,16 µg/mL,4 µg/mL,4.3 h and 4 h,No growth was observed,~2 ×,showed growth,showed no colony formation,
CC1(C)S[C@@H]2[C@H](NC(=O)[C@H](N)c3ccccc3)C(=O)N2[C@H]1C(=O)O [ampicillin],,,,,,,,,,,no effect on PYO production
